The text below walks through data of ChEMBL document CHEMBL1201862, “PubChem BioAssay data set” (2004).

SMILES strings stand for the structures.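 Compound exposure: 48 hours, 5 concentrations, 96-well plates. GI50 marks 50% less growth.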 Active and inactive are the calls of the source. Cut-off read from the data, not from the text of the source: active = GI50 up to about 1.1 µM and inactive = higher. A value given as a limit tells only on which side of the number the result lay.

Among the test systems are COLO 205; EKVX; HOP-62; Hs-578T; IGROV-1; M14; MDA-MB-231; MDA-N; MOLT-4; Malme-3M; OVCAR-3; OVCAR-4; OVCAR-8; PC-3; SF-539; SK-MEL-28; SN12C; SNB-75; SW-620; UO-31.
Common to all, as to assay: NCI-60 cell line screen, 48 h

For the compound `N=C(N)NNC(=O)C(=O)O`, the GI50 in the experiment on COLO 205, in the experiment on EKVX, with HOP-62, in the experiment with Hs-578T, with IGROV-1 and with M14 was > 100 µM (inactive) throughout. The GI50 with MDA-MB-231, in the experiment on MDA-N, in the experiment with MOLT-4, in the experiment with Malme-3M, in the experiment with OVCAR-3 and with OVCAR-4 was > 100 µM (inactive) throughout. In addition, the GI50 in the experiment with OVCAR-8, in the experiment on PC-3, in the experiment on SF-539, in the experiment with SK-MEL-28, in the experiment on SN12C and in the experiment with SNB-75 was > 100 µM (inactive) each time. Further, the GI50 with SW-620 and in the experiment with UO-31 was > 100 µM (inactive) throughout.

With `COc1ccc2o/c(=N/c3ccccc3)c(C(N)=O)cc2c1`, the GI50 is > 100 µM (inactive) with COLO 205; > 25.5 µM (inactive) in the experiment on EKVX; 32.2 µM (inactive) in the experiment on HOP-62; 42.9 µM (inactive) in the experiment with Hs-578T; > 70.6 µM (inactive) in the experiment on IGROV-1; > 100 µM (inactive) in the experiment on M14. For the same compound, the GI50 in the experiment with MDA-MB-231 is > 53.3 µM (inactive); in the experiment with MDA-N, 6.84 µM (inactive); in the experiment on MOLT-4, > 100 µM (inactive); with Malme-3M it was > 100 µM (inactive); in the experiment with OVCAR-3, > 100 µM (inactive); in the experiment with OVCAR-4 it was > 100 µM (inactive). In addition, the GI50 in the experiment on OVCAR-8 was > 67.5 µM (inactive); with PC-3, > 100 µM (inactive); with SF-539, > 75.3 µM (inactive); with SK-MEL-28 it was > 100 µM (inactive); with SN12C, > 100 µM (inactive); in the experiment on SNB-75, 53.7 µM (inactive). Besides, the GI50 in the experiment on SW-620 is > 100 µM (inactive); in the experiment on UO-31, > 36.7 µM (inactive).

As for `COc1cc(OC)c2c(O)c3c(cc2c1)CC(C)(C)CC3=O`, the GI50 is > 100 µM (inactive) with COLO 205; > 100 µM (inactive) in the experiment with EKVX; 97.3 µM (inactive) in the experiment with HOP-62; 16.3 µM (inactive) with Hs-578T; > 100 µM (inactive) in the experiment on IGROV-1; > 100 µM (inactive) in the experiment on M14. In addition, the GI50 with MDA-MB-231 is > 100 µM (inactive); in the experiment with MDA-N it was > 64 µM (inactive); in the experiment with MOLT-4, > 76.6 µM (inactive); in the experiment with Malme-3M, 48.5 µM (inactive); in the experiment with OVCAR-3, > 74.1 µM (inactive); in the experiment with OVCAR-4, 32.1 µM (inactive). For the same compound, the GI50 was > 100 µM (inactive) with OVCAR-8; > 100 µM (inactive) in the experiment on PC-3; > 100 µM (inactive) with SF-539; 60.7 µM (inactive) in the experiment with SK-MEL-28; > 100 µM (inactive) with SN12C; 49.7 µM (inactive) in the experiment with SNB-75. In addition, the GI50 in the experiment on SW-620 is 59 µM (inactive); in the experiment with UO-31, > 100 µM (inactive).

With `COc1ccccc1NC(=S)Nc1cc(C)ccn1`, the GI50 in the experiment with COLO 205 is > 100 µM (inactive); in the experiment on EKVX, > 100 µM (inactive); with HOP-62, 66.8 µM (inactive); in the experiment on Hs-578T, > 100 µM (inactive); with IGROV-1 it was 74 µM (inactive); in the experiment on M14, > 100 µM (inactive). The GI50 in the experiment with MDA-MB-231 was 20 µM (inactive); in the experiment on MDA-N it was > 100 µM (inactive); in the experiment with MOLT-4 it was > 100 µM (inactive); in the experiment with Malme-3M it was > 100 µM (inactive); in the experiment with OVCAR-3, > 100 µM (inactive); in the experiment on OVCAR-4, > 100 µM (inactive). In addition, the GI50 in the experiment with OVCAR-8, in the experiment with PC-3, in the experiment with SF-539, with SK-MEL-28, with SN12C and in the experiment on SNB-75 was > 100 µM (inactive) throughout. Further, the GI50 with SW-620 and in the experiment on UO-31 was > 100 µM (inactive) in each case.

On to `Cc1ccc(C(=O)N2CCN(C(=O)c3ccc(C)cc3)c3ccccc32)cc1`, for which the GI50 in the experiment with COLO 205 was 3.39 µM (inactive); with EKVX, 20.2 µM (inactive); in the experiment with HOP-62, 6.43 µM (inactive); in the experiment with Hs-578T, 2.47 µM (inactive); with IGROV-1, 4.91 µM (inactive); with M14, 4.57 µM (inactive). Moreover, the GI50 with MDA-MB-231 was 23.7 µM (inactive); in the experiment with MDA-N, 0.274 µM (active); with MOLT-4, 3.07 µM (inactive); in the experiment on Malme-3M, 2.84 µM (inactive); in the experiment on OVCAR-3, 2.74 µM (inactive); in the experiment with OVCAR-4, 11.4 µM (inactive). In addition, the GI50 in the experiment on OVCAR-8 was 6.25 µM (inactive); with PC-3 it was 2.86 µM (inactive); with SF-539, 2.42 µM (inactive); in the experiment on SK-MEL-28 it was 5.2 µM (inactive); with SN12C, 6.92 µM (inactive); with SNB-75, 4.68 µM (inactive). Also, the GI50 is 2.93 µM (inactive) in the experiment with SW-620 and 4.76 µM (inactive) in the experiment with UO-31.

As to `CCNC(=S)N/N=C/c1cc(OC)ccc1O`, the GI50 with COLO 205 is > 100 µM (inactive); with EKVX, 89.1 µM (inactive); in the experiment with HOP-62 it was > 100 µM (inactive); in the experiment on Hs-578T it was > 100 µM (inactive); in the experiment on IGROV-1 it was 82.4 µM (inactive); with M14, > 100 µM (inactive). Besides, the GI50 in the experiment on MDA-MB-231 was > 100 µM (inactive); in the experiment on MDA-N it was > 100 µM (inactive); in the experiment with MOLT-4, 67.1 µM (inactive); in the experiment with Malme-3M, > 100 µM (inactive); with OVCAR-3, 6.38 µM (inactive); in the experiment with OVCAR-4, 33.7 µM (inactive). In addition, the GI50 is > 100 µM (inactive) in the experiment on OVCAR-8; 56.2 µM (inactive) in the experiment with PC-3; > 100 µM (inactive) with SF-539; > 100 µM (inactive) in the experiment on SK-MEL-28; > 100 µM (inactive) in the experiment on SN12C; > 100 µM (inactive) in the experiment with SNB-75. The results for the GI50 in the experiment with SW-620 and with UO-31 were > 100 µM (inactive) and 7.01 µM (inactive), respectively.

As for `COc1ccccc1NC(=S)N/N=C(/C)c1ccccn1`, the GI50 is < 0.0119 µM (active) with COLO 205; 0.268 µM (active) in the experiment with EKVX; < 0.0127 µM (active) in the experiment on HOP-62; > 37.5 µM (inactive) with Hs-578T; < 0.01 µM (active) with IGROV-1; < 0.01 µM (active) in the experiment with M14. The GI50 in the experiment with MDA-MB-231 is < 0.01 µM (active); in the experiment on MDA-N, 0.637 µM (active); in the experiment on MOLT-4, < 0.01 µM (active); in the experiment on Malme-3M, 0.0789 µM (active); in the experiment with OVCAR-3, < 0.01 µM (active); in the experiment with OVCAR-4 it was 0.184 µM (active). Besides, the GI50 in the experiment with OVCAR-8 was 0.0112 µM (active); in the experiment on PC-3, < 0.01 µM (active); in the experiment on SF-539, 0.371 µM (active); with SK-MEL-28, 1.71 µM (inactive); with SN12C, 0.178 µM (active); with SNB-75 it was 1.45 µM (inactive). Besides, the GI50 in the experiment on SW-620 was < 0.01 µM (active); in the experiment with UO-31 it was 1.37 µM (inactive).

As to `CC(O)C1(O)C(O)CC(OC2c3cc4c(c(O)c3[C@@H]3C[C@@]2(C)OC32C=c3cc[nH]c3=N2)C(=O)c2cccc(O)c2C4=O)OC1C` (stereo not given in full), the GI50 was 0.697 µM (active) with COLO 205; 1.11 µM (active) in the experiment with EKVX; 1.06 µM (active) in the experiment on HOP-62; 1.73 µM (inactive) in the experiment with Hs-578T; 0.592 µM (active) in the experiment with IGROV-1; 1.34 µM (inactive) in the experiment with M14. Besides, the GI50 in the experiment on MDA-MB-231 is 1.06 µM (active); with MDA-N, 1.81 µM (inactive); in the experiment with MOLT-4, 0.334 µM (active); with Malme-3M, 0.938 µM (active); with OVCAR-3, 1.08 µM (active); in the experiment with OVCAR-4 it was 2.38 µM (inactive). The GI50 in the experiment with OVCAR-8 was 0.959 µM (active); in the experiment with PC-3, 1.23 µM (inactive); in the experiment with SF-539, 1.19 µM (inactive); in the experiment on SK-MEL-28, 1.7 µM (inactive); with SN12C, 0.607 µM (active); in the experiment with SNB-75 it was 1.26 µM (inactive). For the same compound, the figures for the GI50 with SW-620 and in the experiment with UO-31 were 0.809 µM (active) and 1.77 µM (inactive), respectively.

As for `Nc1nc(Sc2ccc([N+](=O)[O-])cn2)c2nc[nH]c2n1`, the GI50 was 11.8 µM (inactive) with COLO 205; 7.53 µM (inactive) with EKVX; 4.6 µM (inactive) with HOP-62; 15.3 µM (inactive) with Hs-578T; 14.5 µM (inactive) with IGROV-1; 3.16 µM (inactive) in the experiment on M14. The GI50 is 5.9 µM (inactive) with MDA-MB-231; 3.61 µM (inactive) in the experiment with MDA-N; 4.56 µM (inactive) with MOLT-4; 11.4 µM (inactive) in the experiment on Malme-3M; 8.93 µM (inactive) in the experiment on OVCAR-3; 9.18 µM (inactive) with OVCAR-4. Further, the GI50 in the experiment on OVCAR-8 is 4.81 µM (inactive); in the experiment with PC-3, 14 µM (inactive); in the experiment with SF-539 it was 6.24 µM (inactive); in the experiment with SK-MEL-28 it was 33.8 µM (inactive); in the experiment with SN12C it was 4.74 µM (inactive); in the experiment on SNB-75, 5.2 µM (inactive). For the same compound, the GI50 in the experiment on SW-620 is 18.2 µM (inactive); in the experiment on UO-31, 3.99 µM (inactive).

Turning to `C/C(=N\NC(=S)N(C)C)c1ccccn1`, the GI50 was < 0.01 µM (active) in the experiment on COLO 205; 0.0284 µM (active) with EKVX; 0.033 µM (active) with HOP-62; 3.7 µM (inactive) in the experiment on Hs-578T; < 0.01 µM (active) with IGROV-1; < 0.01 µM (active) with M14. Further, the GI50 with MDA-MB-231 is < 0.01 µM (active); with MDA-N, 0.305 µM (active); in the experiment on MOLT-4, < 0.01 µM (active); in the experiment with Malme-3M, 0.219 µM (active); in the experiment on OVCAR-3 it was < 0.01 µM (active); with OVCAR-4, < 0.01 µM (active). Moreover, the GI50 with OVCAR-8 is < 0.01 µM (active); in the experiment on PC-3, < 0.01 µM (active); in the experiment on SF-539, 0.231 µM (active); in the experiment on SK-MEL-28, 0.269 µM (active); with SN12C it was 0.057 µM (active); in the experiment with SNB-75 it was 0.486 µM (active). In addition, the results for the GI50 in the experiment with SW-620 and in the experiment with UO-31 were 0.0109 µM (active) and 0.122 µM (active), respectively.
